In patent US8324198B1, “Monocarbams” (Pfizer Inc., priority 2008, dated 2012):
Converted amounts (≈) assume the structure as drawn. Where a name gives a salt, the structure may show the parent alone.

Tests used:
[1] = system: Klebsiella pneumoniae 1000-02; test: In vitro MIC, Klebsiella pneumoniae 1000-02; assay type: cell-based; conditions: strain 1000-02, resistant to cephalosporins
Source text: (§1) Culture collection strain 1045-06 is resistant to several classes of known antimicrobial agents including carbapenems, aminoglycosides and fluoroquinolones, while strains 1000-02 and 3167 are resistant to cephalosporins. Strain PA0200 is a derivative of laboratory strain PAO1 that lacks a functional MexAB-oprM efflux pump.

[2] = system: Pseudomonas aeruginosa 1045-06; test: In vitro MIC, Pseudomonas aeruginosa 1045-06; assay type: cell-based; conditions: strain 1045-06, resistant to carbapenems, aminoglycosides and fluoroquinolones
Source text: as §1

P. aeruginosa 1091-05 [3] = test: Murine respiratory tract infection model against P. aeruginosa 1091-05 (PD50); assay type: in vivo; conditions: for RTI PD50 vs. Pa 1091-05 (95% confidence interval): immunosuppressed C3H/HeN mice, intranasal challenge, subcutaneous BID for two days from 4 h post-challenge, lethality over ten days; for Efficacy relative to Comparative Example A (PD50, 95% confidence intervals): murine respiratory tract infection model, P. aeruginosa 1091-05
Description: For this model, C3H/HeN mice were immunosuppressed with cyclophosphamide given orally at 150 mg/kg and 100 mg/kg on days −4 and −1 relative to challenge, respectively. Mice were anesthetized with isoflurane (5% in oxygen) and the bacterial inoculum was given to each mouse via intranasal instillation in a 40 μL volume (˜2.8×10^3 cfu per mouse). Mice were dosed with compound administered via subcutaneous injection beginning at four hours post-challenge, and continuing for two days of BID therapy.
PD50 is a measure of the ability of a compound to protect mice from a lethal infection.

[4] = system: Acinetobacter baumanii 3167; test: In vitro MIC, Acinetobacter baumanii 3167; assay type: cell-based; conditions: strain 3167, resistant to cephalosporins
Source text: as §1

P. aeruginosa 1091-05 [5] = test: In vitro MIC, P. aeruginosa 1091-05; assay type: cell-based; conditions: for MIC: Pseudomonas aeruginosa, 109105, read-out: Pa 1091-05 MIC
[6] = system: Pseudomonas aeruginosa PA0200 MexAB-oprM KO; test: In vitro MIC, Pseudomonas aeruginosa PA0200 MexAB-oprM KO; assay type: cell-based; conditions: PAO1, read-out: MIC Pseudomonas aeruginosa PA0200 MexAB-oprM KO
Source text: as §1

Molecule | MIC Klebsiella pneumoniae 1000-02 [1] [µg/mL] | MIC Pseudomonas aeruginosa 1045-06 [2] [µg/mL] | RTI PD50 vs. Pa 1091-05 (95% confidence interval) (P. aeruginosa 1091-05 [3]; disodium salt) | Efficacy relative to Comparative Example A (PD50, 95% confidence intervals) (P. aeruginosa 1091-05 [3]) | MIC Acinetobacter baumanii 3167 [4] [µg/mL] | Pa 1091-05 MIC (P. aeruginosa 1091-05 [5]) [µg/mL] | MIC [6] [µg/mL] | RTI PD50 vs. Pa 1091-05 (95% confidence interval) (P. aeruginosa 1091-05 [3]) [mg/kg] | MIC (P. aeruginosa 1091-05 [5]) [µg/mL]
2-({[(1Z)-2-{[(3S)-1-({[4-(2-amino-2-oxoethyl)-3-(5-hydroxy-4-oxo-1,4-dihydropyridin-2-yl)-5-oxo-4,5-dihydro-1H-1,2,4-triazol-1-yl]sulfonyl}carbamoyl)-2-oxoazetidin-3-yl]amino}-1-(2-amino-1,3-thiazol-4-yl)-2-oxoethylidene]amino}oxy)-2-methylpropanoic acid, disodium salt [Example 4] | 1000 | 500 | 25.0 (24.8-25.2) mg/kg | significantly more efficacious relative to Comparative Example A | 1000 | 125 | – | – | –
CCn1c(-c2cc(=O)c(O)c[nH]2)nn(S(=O)(=O)NC(=O)N2C[C@H](NC(=O)C(=NOC(C)(C)C(=O)O)c3csc(N)n3)C2=O)c1=O (stereo in doubt) [Example 1, 2-({[(1E)-1-(2-amino-1,3-thiazol-4-yl)-2-{[(3S)-1-({[4-ethyl-3-(5-hydroxy-4-oxo-1,4-dihydropyridin-2-yl)-5-oxo-4,5-dihydro-1H-1,2,4-triazol-1-yl]sulfonyl}carbamoyl)-2-oxoazetidin-3-yl]amino}-2-oxoethylidene]amino}oxy)-2-methylpropanoic acid] | – | – | – | – | – | – | < 62.5 | – | –
CO/N=C(\C(=O)N[C@@H]1C(=O)N2C(C(=O)[O-])=C(C[N+]3(C)CCCC3)CS[C@H]12)c1csc(N)n1 [Cefepime, reference compound] | – | – | – | – | – | – | – | 22 | 2000 (≈ 4160 µM)
CN(C)CCn1c(-c2cc(=O)c(O)c[nH]2)nn(S(=O)(=O)NC(=O)N2C[C@H](NC(=O)/C(=N\OC(C)(C)C(=O)O)c3csc(N)n3)C2=O)c1=O [Example 2, 2-({[(1Z)-1-(2-amino-1,3-thiazol-4-yl)-2-({(3S)-1-[({4-[2-(dimethylamino)ethyl]-3-(5-hydroxy-4-oxo-1,4-dihydropyridin-2-yl)-5-oxo-4,5-dihydro-1H-1,2,4-triazol-1-yl}sulfonyl)carbamoyl]-2-oxoazetidin-3-yl}amino)-2-oxoethylidene]amino}oxy)-2-methylpropanoic acid] | – | – | – | – | – | – | 188 (≈ 264 µM) | – | –
CC(C)(O/N=C(\C(=O)N[C@H]1CN(C(=O)NS(=O)(=O)n2nc(-c3cc(=O)c(O)c[nH]3)n(C[C@@H](O)CO)c2=O)C1=O)c1csc(N)n1)C(=O)[O-].CC(C)(O/N=C(\C(=O)N[C@H]1CN(C(=O)NS(=O)(=O)n2nc(-c3cc(=O)c(O)c[nH]3)n(C[C@@H](O)CO)c2=O)C1=O)c1csc(N)n1)C(=O)[O-].[Na+].[Na+] [Example 3, 2-({[(1Z)-1-(2-amino-1,3-thiazol-4-yl)-2-({(3S)-1-[({4-[(2R)-2,3-dihydroxypropyl]-3-(5-hydroxy-4-oxo-1,4-dihydropyridin-2-yl)-5-oxo-4,5-dihydro-1H-1,2,4-triazol-1-yl}sulfonyl)carbamoyl]-2-oxoazetidin-3-yl}amino)-2-oxoethylidene]amino}oxy)-2-methylpropanoic acid, disodium salt] | 500 | 500 | 20.6 (8.7-32.52) mg/kg | significantly more efficacious relative to Comparative Example A | 500 | 125 | – | – | –
CC(C)(O/N=C(\C(=O)N[C@H]1CN(C(=O)NS(=O)(=O)n2nc(-c3cc(=O)c(O)c[nH]3)n(C[C@H](O)CO)c2=O)C1=O)c1csc(N)n1)C(=O)[O-].CC(C)(O/N=C(\C(=O)N[C@H]1CN(C(=O)NS(=O)(=O)n2nc(-c3cc(=O)c(O)c[nH]3)n(C[C@H](O)CO)c2=O)C1=O)c1csc(N)n1)C(=O)[O-].[Na+].[Na+] [Example 5, 2-({[(1Z)-1-(2-amino-1,3-thiazol-4-yl)-2-({(3S)-1-[({4-[(2S)-2,3-dihydroxypropyl]-3-(5-hydroxy-4-oxo-1,4-dihydropyridin-2-yl)-5-oxo-4,5-dihydro-1H-1,2,4-triazol-1-yl}sulfonyl)carbamoyl]-2-oxoazetidin-3-yl}amino)-2-oxoethylidene]amino}oxy)-2-methylpropanoic acid, disodium salt] | 500 | 250 | 18.6 (8.94-28.29) mg/kg | significantly more efficacious relative to Comparative Example A | 500 | 125 | – | – | –
C[C@@H](O)Cn1c(-c2cc(=O)c(O)c[nH]2)nn(S(=O)(=O)NC(=O)N2C[C@H](NC(=O)/C(=N\OC(C)(C)C(=O)[O-])c3csc(N)n3)C2=O)c1=O.C[C@@H](O)Cn1c(-c2cc(=O)c(O)c[nH]2)nn(S(=O)(=O)NC(=O)N2C[C@H](NC(=O)/C(=N\OC(C)(C)C(=O)[O-])c3csc(N)n3)C2=O)c1=O.[Na+].[Na+] [Example 6] | 500 | 250 | 32.7 (23.7-42.0) mg/kg | significantly more efficacious relative to Comparative Example A | 1000 | 125 | – | – | –
C[C@H](O)Cn1c(-c2cc(=O)c(O)c[nH]2)nn(S(=O)(=O)NC(=O)N2C[C@H](NC(=O)/C(=N\OC(C)(C)C(=O)[O-])c3csc(N)n3)C2=O)c1=O.C[C@H](O)Cn1c(-c2cc(=O)c(O)c[nH]2)nn(S(=O)(=O)NC(=O)N2C[C@H](NC(=O)/C(=N\OC(C)(C)C(=O)[O-])c3csc(N)n3)C2=O)c1=O.[Na+].[Na+] [Example 7, 2-({[(1Z)-1-(2-amino-1,3-thiazol-4-yl)-2-({(3S)-1-[({3-(5-hydroxy-4-oxo-1,4-dihydropyridin-2-yl)-4-[(2S)-2-hydroxypropyl]-5-oxo-4,5-dihydro-1H-1,2,4-triazol-1-yl}sulfonyl)carbamoyl]-2-oxoazetidin-3-yl}amino)-2-oxoethylidene]amino}oxy)-2-methylpropanoic acid, disodium salt] | 250 | 250 | 15.7 (8.45-22.96) mg/kg | significantly more efficacious relative to Comparative Example A | 1000 | 125 | – | – | –
CCCn1c(-c2cc(=O)c(O)c[nH]2)nn(S(=O)(=O)NC(=O)N2C[C@H](NC(=O)/C(=N\OC(C)(C)C(=O)O)c3csc(N)n3)C2=O)c1=O [Example 9, 2-({[(1Z)-1-(2-amino-1,3-thiazol-4-yl)-2-{[(3S)-1-({[3-(5-hydroxy-4-oxo-1,4-dihydropyridin-2-yl)-5-oxo-4-propyl-4,5-dihydro-1H-1,2,4-triazol-1-yl]sulfonyl}carbamoyl)-2-oxoazetidin-3-yl]amino}-2-oxoethylidene]amino}oxy)-2-methylpropanoic acid] | – | – | – | – | – | – | < 62.5 | – | –
CC(C)(O/N=C(\C(=O)N[C@H]1CN(C(=O)NS(=O)(=O)n2nc(-c3cc(=O)c(O)c[nH]3)n(CC(O)CO)c2=O)C1=O)c1csc(N)n1)C(=O)O (stereo partly drawn) [Example 10, 2-({[(1Z)-1-(2-amino-1,3-thiazol-4-yl)-2-{[(3S)-1-({[4-(2,3-dihydroxypropyl)-3-(5-hydroxy-4-oxo-1,4-dihydropyridin-2-yl)-5-oxo-4,5-dihydro-1H-1,2,4-triazol-1-yl]sulfonyl}carbamoyl)-2-oxoazetidin-3-yl]amino}-2-oxoethylidene]amino}oxy)-2-methylpropanoic acid] | – | – | – | – | – | – | 250 (≈ 350 µM) | – | –
CC(C)(O/N=C(\C(=O)N[C@H]1CN(C(=O)NS(=O)(=O)n2nc(-c3cc(=O)c(O)c[nH]3)n(CCN3CCCC3)c2=O)C1=O)c1csc(N)n1)C(=O)O [Example 11, 2-({[(1Z)-1-(2-amino-1,3-thiazol-4-yl)-2-{[(3S)-1-({[3-(5-hydroxy-4-oxo-1,4-dihydropyridin-2-yl)-5-oxo-4-(2-pyrrolidin-1-ylethyl)-4,5-dihydro-1H-1,2,4-triazol-1-yl]sulfonyl}carbamoyl)-2-oxoazetidin-3-yl]amino}-2-oxoethylidene]amino}oxy)-2-methylpropanoic acid] | – | – | – | – | – | – | 16000 (≈ 21700 µM) | – | –
COCCn1c(-c2cc(=O)c(O)c[nH]2)nn(S(=O)(=O)NC(=O)N2C[C@H](NC(=O)/C(=N\OC(C)(C)C(=O)O)c3csc(N)n3)C2=O)c1=O [Example 15, 2-({[(1Z)-1-(2-amino-1,3-thiazol-4-yl)-2-{[(3S)-1-({[3-(5-hydroxy-4-oxo-1,4-dihydropyridin-2-yl)-4-(2-methoxyethyl)-5-oxo-4,5-dihydro-1H-1,2,4-triazol-1-yl]sulfonyl}carbamoyl)-2-oxoazetidin-3-yl]amino}-2-oxoethylidene]amino}oxy)-2-methylpropanoic acid, disodium salt] | – | – | – | – | – | – | – | >70.8 | 500
C[C@@H](O)[C@H]1C(=O)N2C(C(=O)O)=C(SCCN=CN)C[C@H]12 [Imipenem, reference compound] | – | – | – | – | – | – | – | 1.04 | 500 (≈ 1670 µM)
